Experimental data: PubChem BioAssay (NCI)
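Compound exposure: 48 hours, 5 concentrations, 96-well plates. TGI: concentration producing complete growth inhibition.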

Columns and labels:
Assay in all cases: NCI tumour cell line growth inhibition, 48 h
786-0 renal = test system: 786-0 renal
DMS 114 small cell lung = test system: DMS 114 small cell lung
HOP-18 NSCLC = test system: HOP-18 NSCLC
LXFL 529 NSCLC = test system: LXFL 529 NSCLC
RXF-631 renal = test system: RXF-631 renal
SNB-78 CNS = test system: SNB-78 CNS
P388 leukemia = test system: P388 leukemia
P388/ADR leukemia = test system: P388/ADR leukemia
SN12K1 renal = test system: SN12K1 renal

Oc1ccc2ccccc2c1N=Nc1ccc(N=Nc2ccccc2)cc1
TGI (786-0 renal): > 100 µM

C#CCCCCC#CC1CCCC1C1=CC(=O)c2ccccc21 (stereo unspecified)
TGI (DMS 114 small cell lung): 6.97 µM
TGI (HOP-18 NSCLC): 25 µM

CCCNCC(O)/C=C/[Si](C)(C)C (stereo unspecified) (tested in a mixture with another compound)
TGI (DMS 114 small cell lung): > 100 µM
TGI (HOP-18 NSCLC): > 100 µM
TGI (LXFL 529 NSCLC): > 100 µM
TGI (RXF-631 renal): > 100 µM
TGI (SNB-78 CNS): > 100 µM

CCCCCCc1ccc(O)cc1O
TGI (HOP-18 NSCLC): > 92.5 µM
TGI (P388 leukemia): > 100 µM
TGI (P388/ADR leukemia): > 100 µM
TGI (SN12K1 renal): > 100 µM
TGI (SNB-78 CNS): > 100 µM

Cc1ccccc1N=Nc1ccc(N=Nc2c(O)ccc3cc(S(=O)(=O)O)cc(S(=O)(=O)O)c23)c(C)c1
TGI (786-0 renal): > 100 µM

NC(=O)c1nnc2cc(F)c(F)cc2c1N
TGI (786-0 renal): > 100 µM

C[n+]1ccccc1/C=C/c1ccc2c(c1)OCO2
TGI (786-0 renal): > 10 µM

Cc1c2ccccc2nc2[nH]c3ccncc3c12
TGI (786-0 renal): 71.5 µM

N=c1nc(N)nc(N)n1-c1ccc(S(N)(=O)=O)cc1
TGI (786-0 renal): > 100 µM

CCOC(=O)C1=C(C)N2CCCOC2(C)C(C(=O)OC)C1c1cccc([N+](=O)[O-])c1 (stereo unspecified)
TGI (DMS 114 small cell lung): > 100 µM
TGI (LXFL 529 NSCLC): > 100 µM

CN(C)CCNc1ccc2nnn3c4ccc(Cl)cc4c(=O)c1c23
TGI (786-0 renal): 15.6 µM
TGI (LXFL 529 NSCLC): 19.2 µM
TGI (RXF-631 renal): 16.4 µM
TGI (SNB-78 CNS): 34.9 µM

COc1cc2c(cc1O)CCN[C@@]21CS[C@H]2c3c(OC(C)=O)c(C)c4c(c3C(COC1=O)N1C2C2c3c(cc(C)c(OC)c3O)CC([C@@H]1O)N2C)OCO4 (stereo partly specified)
TGI (LXFL 529 NSCLC): 4.31e-05 µM

COc1cc2c(cc1OC)C(C1(O)CCCCC1)NCC2 (stereo unspecified)
TGI (LXFL 529 NSCLC): > 100 µM

N=C(N)SC1c2ccccc2-c2cc([N+](=O)[O-])ccc21 (stereo unspecified)
TGI (786-0 renal): 14.9 µM

Cc1nnc2sc(-c3ccc(N)cc3)nn12
TGI (786-0 renal): > 100 µM

Nc1nc(Cl)cc(NCCCCO)n1
TGI (DMS 114 small cell lung): > 100 µM
TGI (LXFL 529 NSCLC): > 100 µM
TGI (RXF-631 renal): > 100 µM
TGI (SNB-78 CNS): > 100 µM

O=S(=O)(O)c1cc(O)c2c(O)c(N=Nc3ccc(/C=C/c4ccc(N=Nc5c(S(=O)(=O)O)cc6cc(S(=O)(=O)O)cc(O)c6c5O)cc4S(=O)(=O)O)c(S(=O)(=O)O)c3)c(S(=O)(=O)O)cc2c1
TGI (786-0 renal): > 100 µM
TGI (DMS 114 small cell lung): > 100 µM
TGI (HOP-18 NSCLC): > 100 µM
TGI (LXFL 529 NSCLC): > 100 µM
